Measurements taken from the supplement of paper PMC11208160.

Experiment: recombinant UMI read abundance after kanamycin selection (control-corrected) (log10(CPM+1)); higher = more efficient recombination; extreme values may be limits of the assay; sequences stand for … in AGTGCAGAGAAAATCGGCCAGTTTTCTCTGCCTGCAGTCCGCATGCCGTGGGACCCCTTGGGTTCTAACCTGTTGCCTAGATTTATGCAGCGGACTGCCTTTCTCCCAAAGTGATAAACCGG…AGGTTGGTTTCACT; site = the 11-nt donor
Procedure, shortened: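 Values, expressed as log10(CPM+1), derive from recombinant UMI counts converted to CPM, averaged across replicates and scaled by control-derived factors. Plating was with IPTG (0.07 mM) plus kanamycin or unselected, two replicates each. The screen pooled donor and donor-binding-loop pairs for the IS621 bridge recombinase in Escherichia coli.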
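Also: IS621 bridge recombinase in Escherichia coli cells against a fixed T5 target plasmid.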

Sequence	recombinant UMI read abundance (log10)
TGTACACCATGGACCGGTTTTCCCGGTAATCCGTATTTGAG (site TGTACACCTCT)	0.00855
CCCTAGCCATGGACCGGTTTTCCCGGTAATCCGTATTTGCT (site CCCTAGCCTGG)	0
TACAGCCCATGGACCGGTTTTCCCGGTAATCCGTATTTGGA (site TACAGCCCTTC)	0.0282
ATGATAACATGGACCGGTTTTCCCGGTAATCCGTATTTGCA (site ATGATAACTTG)	2.08
TTAAGCCCATGGACCGGTTTTCCCGGTAATCCGTATTTGGT (site TTAAGCCCTAC)	0.174
GGTGCACCATGGACCGGTTTTCCCGGTAATCCGTATTTGCA (site GGGGCACCTTG)	0
TATTTGGCATGGACCGGTTTTCCCGGTAATCCGTATTTGTG (site TATTAGGCTCA)	0.00968
ATGTAGGCATGGACCGGTTTTCCCGGTAATCCGTATTTGGC (site ATGTAGCCTGC)	0.604
GCTACTTCATGGACCGGTTTTCCCGGTAATCCGTATTTGCC (site GCTACTTCTGG)	1.34
ACTCATCCATGGACCGGTTTTCCCGGTAATCCGTATTTGAC (site ACCCATCCTGT)	0.872
GTGGGTACATGGACCGGTTTTCCCGGTAATCCGTATTTGAC (site GTGGGTACTGT)	2.91
CGTACACCATGGACCGGTTTTCCCGGTAATCCGTATTTGAC (site TGTACACCTGT)	0
CCCGGTCCATGGACCGGTTTTCCCGGTAATCCGTATTTGCC (site CCCGGTCCTAG)	0
GATTATCCATGGACCGGTTTTCCCGGTAATCCGTATTTGCA (site GATTATCCTCG)	0
GTGGAGGCATGGACCGGTTTTCCCGGTAATCCGTATTTGTT (site GTGGAGGCTAA)	1.58
TAATGAGCATGGACCGGTTTTCCCGGTAATCCGTATTTGGA (site TAATGAGCTAC)	0.0122
CCAGGTGCATGGACCGGTTTTCCCGGTAATCCGTATTTGTT (site CCAGGTGCTAA)	0.856
CAATGGTCATGGACCGGTTTTCCCGGTAATCCGTATTTGAA (site CAATGTTCTTT)	0
TCAGAGACATGGACCGGTTTTCCCGGTAATCCGTATTTGCA (site TCAGAGACTGG)	0.635
CTAGTTTCATGGACCGGTTTTCCCGGTAATCCGTATTTGAC (site CTAGTGTCTGT)	0
AAAAGGCCATGGACCGGTTTTCCCGGTAATCCGTATTTGAC (site ATAAGGCCTGT)	0
ATGGGTACATGGACCGGTTTTCCCGGTAATCCGTATTTGGC (site ATGGGTACTGC)	2.89
AATTAGGCATGGACCGGTTTTCCCGGTAATCCGTATTTGGG (site AATTAGGCTCC)	0.0811
TCATACTCATGGACCGGTTTTCCCGGTAATCCGTATTTGCA (site TTATACTCTTG)	1.2
TGTATCTCATGGACCGGTTTTCCCGGTAATCCGTATTTGGG (site TGTATCTCTCC)	0.0516

Sequence	recombinant UMI read abundance (log10)
TCACATCCATGGACCGGTTTTCCCGGTAATCCGTATTTGAC (site ACACATCCTGT)	0
TCGCCGGCATGGACCGGTTTTCCCGGTAATCCGTATTTGGC (site TAGCCGGCTGC)	0
TTAGCTGCATGGACCGGTTTTCCCGGTAATCCGTATTTGCG (site TTAGCTGCTCC)	0.0194
CGGGAGTCATGGACCGGTTTTCCCGGTAATCCGTATTTGCG (site CGGGAGTCTCG)	2.8
TACTGGACATGGACCGGTTTTCCCGGTAATCCGTATTTGCT (site TACTCGACTAG)	0.188
CAAGCGCCATGGACCGGTTTTCCCGGTAATCCGTATTTGTT (site CAAGCGCCTGA)	1.75
GTATGCACATGGACCGGTTTTCCCGGTAATCCGTATTTGTA (site GTCTGCACTTA)	0.0377
GATTGGACATGGACCGGTTTTCCCGGTAATCCGTATTTGGC (site GATTGGACTGA)	0
TAAAGAGCATGGACCGGTTTTCCCGGTAATCCGTATTTGGG (site TAATGAGCTCC)	0.00709
AAGCACGCATGGACCGGTTTTCCCGGTAATCCGTATTTGGA (site AAGCACGCTCC)	0.0219
GCTAATGCATGGACCGGTTTTCCCGGTAATCCGTATTTGCC (site GCTAGTGCTGG)	0
CGCGAACCATGGACCGGTTTTCCCGGTAATCCGTATTTGAT (site CGCGAACCTAT)	0
GCTAGGGCATGGACCGGTTTTCCCGGTAATCCGTATTTGTT (site GCTAGGGCTAA)	1.53
ATGCTCGCATGGACCGGTTTTCCCGGTAATCCGTATTTGAA (site ATGCTCGCTTT)	1.82
AATTATGCATGGACCGGTTTTCCCGGTAATCCGTATTTGAA (site AATTATGCTTA)	0.0142
CGGACAACATGGACCGGTTTTCCCGGTAATCCGTATTTGCT (site CGGACACCTAG)	0
CGAATCGCATGGACCGGTTTTCCCGGTAATCCGTATTTGAT (site CGAATCGCTAT)	2.72
AGGTACCCATGGACCGGTTTTCCCGGTAATCCGTATTTGTG (site AGGTGCCCTCA)	0.0127
AGGTGGCCATGGACCGGTTTTCCCGGTAATCCGTATTTGCC (site AGGTGGCCTGG)	0
CCATATTCATGGACCGGTTTTCCCGGTAATCCGTATTTGAC (site GGGATCGCTAC)	0.00628
CCAGGTGCATGGACCGGTTTTCCCGGTAATCCGTATTTGCT (site CCAGGTGCTAG)	1.46
TGGCCCGCATGGACCGGTTTTCCCGGTAATCCGTATTTGGC (site TGGCCCGCTGC)	0.649
CCTAATCCATGGACCGGTTTTCCCGGTAATCCGTATTTGGC (site CCTAATGCTGC)	0
GCCACTCCATGGACCGGTTTTCCCGGTAATCCGTATTTGTA (site GCCACGCCTTA)	0.00354
GTCTTCCCATGGACCGGTTTTCCCGGTAATCCGTATTTGCA (site GTCTTCCCTTG)	0

Sequence	recombinant UMI read abundance (log10)
AGGAATACATGGACCGGTTTTCCCGGTAATCCGTATTTGGA (site AGGAATACTTC)	1.69
TCCAATTCATGGACCGGTTTTCCCGGTAATCCGTATTTGCC (site TCCAATTCTTG)	0
GATTAGCCATGGACCGGTTTTCCCGGTAATCCGTATTTGCT (site GATTACCCTAG)	0
TAGGAATCATGGACCGGTTTTCCCGGTAATCCGTATTTGAG (site TAGGAATCTCG)	1.36
ACTAGAACATGGACCGGTTTTCCCGGTAATCCGTATTTGCG (site ACTAGAACTCA)	0.0146
ACAGTACCATGGACCGGTTTTCCCGGTAATCCGTATTTGCA (site ACAGTAACTTG)	0
AAGCACGCATGGACCGGTTTTCCCGGTAATCCGTATTTGGG (site ATGCACGCTCC)	0.0113
CCTTTTACATGGACCGGTTTTCCCGGTAATCCGTATTTGCT (site CCTTTTACTAG)	0
CTGCCACCATGGACCGGTTTTCCCGGTAATCCGTATTTGCT (site CTGCTACCTAG)	0
CGAAATCCATGGACCGGTTTTCCCGGTAATCCGTATTTGTA (site CGGAATCCTAA)	0.00383
ATATATACATGGACCGGTTTTCCCGGTAATCCGTATTTGAC (site ATTTATACTGT)	0.227
GTCACGCCATGGACCGGTTTTCCCGGTAATCCGTATTTGTA (site GACACGCCTTA)	0.00466
TGGACACCATGGACCGGTTTTCCCGGTAATCCGTATTTGAC (site TGTACACCTGT)	0
TCATACTCATGGACCGGTTTTCCCGGTAATCCGTATTTGCA (site TCATACTCTTA)	0
TTTGCGGCATGGACCGGTTTTCCCGGTAATCCGTATTTGTT (site TTTGCGGCTAT)	0.00523
CTGCTACCATGGACCGGTTTTCCCGGTAATCCGTATTTGAT (site CTGCTACCTAT)	0.00649
ATGCAAGCATGGACCGGTTTTCCCGGTAATCCGTATTTGAG (site ATTCAAGCTCT)	0.614
CAAGCGCCATGGACCGGTTTTCCCGGTAATCCGTATTTGTT (site CAAGCGCCTAA)	2.13
GGGAATCCATGGACCGGTTTTCCCGGTAATCCGTATTTGAT (site CGGAATCCTAA)	0
CGTGGAACATGGACCGGTTTTCCCGGTAATCCGTATTTGTA (site CGTGGAACTCA)	0.0215
ACTTCGCCATGGACCGGTTTTCCCGGTAATCCGTATTTGCT (site ACTTCGCCTAG)	0.0122
GGGAAGGCATGGACCGGTTTTCCCGGTAATCCGTATTTGCA (site GGGAAGGCTTG)	2.86
ACAGTATCATGGACCGGTTTTCCCGGTAATCCGTATTTGAA (site ACAGTATCTTA)	2.34
TTGTCGACATGGACCGGTTTTCCCGGTAATCCGTATTTGAC (site TTGTCGACTGT)	0.302
AATCTTGCATGGACCGGTTTTCCCGGTAATCCGTATTTGTC (site AATCTTGCTGA)	1.07
